Columns and labels:
Assay type in all cases: in vivo, ICR strain male mice (Crj:CD-1)
leukocytes [1] = test: Test for investigating the increase of leukocytes in normal mice; conditions: blood on day after last administration
Procedure: ICR strain male mice (Crj:CD-1) aged 7 weeks were used in the test. The animals were divided into 5 groups of 4 animals per group. The following were intravenously and repeatedly administered to the groups, respectively, for 5 days; the first group: physiological saline as solvent, the second group: sulphostin (2 mg/kg/day), the third group: sulphostin (10 mg/kg/day), the fourth group: sulphostin (50 mg/kg/day), and the fifth group: sulphostin (250 mg/kg/day). On the day subsequent to the last day of the administration period, blood was drawn from the abdominal aorta under anesthesia and the number of leukocytes was measured.

leukocytes [2] = test: Test for evaluating an efficacy on drug-induced leukopenia (cyclophosphamide); conditions: for number of leukocytes, percentage based on Day 0 / number of leukocytes (mean ± S.D): cyclophosphamide 200 mg/kg i.p. Day 0
Procedure: The effect of sulphostin [3(S)-amino-1-((R)-amino(sulfoamino)phosphinyl)-2-piperidone] on drug-induced leukopenia was evaluated according to the method of Okabe et al. (Yakuri to Chiryo (Japanese Pharmacology and Therapeutics) Vol. 19, No. 6, p. 55, 1991).
ICR strain male mice (Crj:CD-1) aged 8 weeks were used in the test. The animals were divided into three groups of 3 or 4 animals per group.
On Day 0, cyclophosphamide was intraperitoneally administered once to all the groups in a dose of 200 mg/kg. From the next day, the following were intravenously and repeatedly administered to the groups, respectively, for 5 days (Day 1 to 5); the first group (a control group): physiological saline, the second group: sulphostin (30 mg/kg/day), and the third group: sulphostin (100 mg/kg/day). Blood was drawn from the posterior-eyehole venous plexus on Day 0 (before the administration of cyclophosphamide) and Days 2, 4, 6 and 8 (the blood drawing, however, was carried out only on Days 0, 4 and 6 in the case of the second group), and the number of leukocytes was periodically measured to investigate the leukocyte-increasing effect of sulphostin relative to a decrease of leukocytes caused by cyclophosphamide.
The data are expressed as the mean±S.D and percentages based on the number of leukocytes on Day 0. ND refers to no data.

G-CSF = test: Test for investigating the increase of G-CSF concentration in normal mice (plasma, mouse G-CSF ELISA); conditions: blood on day after completion
Procedure: ICR strain male mice (Crj:CD-1) aged 7 weeks were used in the test. The animals were divided into 4 groups of 5 animals per group. The following were intravenously and repeatedly administered to the groups, respectively, for 5 days; the first group: physiological saline as solvent, the second group: sulphostin (10 mg/kg/day), the third group: sulphostin (30 mg/kg/day), and the fourth group: sulphostin (90 mg/kg/day). On the day subsequent to completion of the administration, blood was drawn from the abdominal aorta under anesthesia. The blood obtained was centrifuged to collect plasma, and G-CSF was measured by the use of a mouse G-CSF ELISA measuring kit (R & D SYSTEMS Inc.).

[3] = sulphostin 10 mg/kg/day i.v. for 5 days

N[C@H]1CCCN([P@@](N)(=O)NS(=O)(=O)O)C1=O [Sulphostin, 3(S)-amino-1-((R)-amino(sulfoamino)-phosphinyl)-2-piperidone]
number of leukocytes larger than that of the control group by factor (leukocytes [1]; sulphostin 2 mg/kg/day i.v. for 5 days): 1.4
number of leukocytes larger than that of the control group by factor (leukocytes [1]; [3]): 1.9
number of leukocytes larger than that of the control group by factor (leukocytes [1]; sulphostin 50 mg/kg/day i.v. for 5 days): 4.9
number of leukocytes larger than that of the control group by factor (leukocytes [1]; sulphostin 250 mg/kg/day i.v. for 5 days): 5.9
number of leukocytes, percentage based on Day 0 (leukocytes [2]; sulphostin 30 mg/kg/day i.v. Day 1 to 5, Day 0 (before cyclophosphamide)): 100%
number of leukocytes (mean ± S.D) (leukocytes [2]; sulphostin 30 mg/kg/day i.v. Day 1 to 5, Day 0 (before cyclophosphamide), n = 3): 44 ± 7.1 ×100/millimeter cube
number of leukocytes, percentage based on Day 0 (leukocytes [2]; sulphostin 30 mg/kg/day i.v. Day 1 to 5, Day 4): 30%
number of leukocytes (mean ± S.D) (leukocytes [2]; sulphostin 30 mg/kg/day i.v. Day 1 to 5, Day 4, n = 3): 13 ± 12.5 ×100/millimeter cube
number of leukocytes, percentage based on Day 0 (leukocytes [2]; sulphostin 30 mg/kg/day i.v. Day 1 to 5, Day 6): 95%
number of leukocytes (mean ± S.D) (leukocytes [2]; sulphostin 30 mg/kg/day i.v. Day 1 to 5, Day 6, n = 3): 42 ± 14.5 ×100/millimeter cube
number of leukocytes, percentage based on Day 0 (leukocytes [2]; sulphostin 100 mg/kg/day i.v. Day 1 to 5, Day 0 (before cyclophosphamide)): 100%
number of leukocytes (mean ± S.D) (leukocytes [2]; sulphostin 100 mg/kg/day i.v. Day 1 to 5, Day 0 (before cyclophosphamide), n = 4): 38 ± 17.2 ×100/millimeter cube
number of leukocytes, percentage based on Day 0 (leukocytes [2]; sulphostin 100 mg/kg/day i.v. Day 1 to 5, Day 2): 55%
number of leukocytes (mean ± S.D) (leukocytes [2]; sulphostin 100 mg/kg/day i.v. Day 1 to 5, Day 2, n = 4): 21 ± 5.1 ×100/millimeter cube
number of leukocytes, percentage based on Day 0 (leukocytes [2]; sulphostin 100 mg/kg/day i.v. Day 1 to 5, Day 4): 26%
number of leukocytes (mean ± S.D) (leukocytes [2]; sulphostin 100 mg/kg/day i.v. Day 1 to 5, Day 4, n = 4): 10 ± 6.3 ×100/millimeter cube
number of leukocytes, percentage based on Day 0 (leukocytes [2]; sulphostin 100 mg/kg/day i.v. Day 1 to 5, Day 6): 126%
number of leukocytes (mean ± S.D) (leukocytes [2]; sulphostin 100 mg/kg/day i.v. Day 1 to 5, Day 6, n = 4): 48 ± 23.8 ×100/millimeter cube
number of leukocytes, percentage based on Day 0 (leukocytes [2]; sulphostin 100 mg/kg/day i.v. Day 1 to 5, Day 8): 668%
number of leukocytes (mean ± S.D) (leukocytes [2]; sulphostin 100 mg/kg/day i.v. Day 1 to 5, Day 8, n = 4): 254 ± 75.5 ×100/millimeter cube
restoration of the number of leukocytes to the initial value after the administration of cyclophosphamide, time required (leukocytes [2]; sulphostin-treated groups (30 and 100 mg/kg/day i.v.), control group requires 8 days): 6 days
G-CSF level higher than that of the control group by factor (G-CSF; [3]): 1.03
G-CSF level higher than that of the control group by factor (G-CSF; sulphostin 30 mg/kg/day i.v. for 5 days): 6.1
G-CSF level higher than that of the control group by factor (G-CSF; sulphostin 90 mg/kg/day i.v. for 5 days): 7.0
